Read-outs that look alike come from different tables or passages of the source.
Assays:
Tyk2 = target: T1, Tyk2 (Homo sapiens, UniProt P29597); experiment: Tyk2 enzyme inhibition test (LANCE method); format: biochemical; settings: for inhibition at 1 µM / Inhibitory rate (%) Tyk2 1 μM: test compound 1 μM; for inhibition at 1 µM: read-out: Inhibitory rate (%) Tyk2 1 μM
T1 construct: purchased Invitrogen
In short: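 LANCE TR-FRET read-out (ex 340/em 665 nm, 100 μs delay) of ULight-JAK1 phosphorylation, with no-enzyme wells as 100% inhibition. Reaction run 1 h at room temperature in pH 7.5 HEPES buffer; enzyme 375 ng/mL, substrate 300 nM and ATP 30 μM are solution concentrations before mixing.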

JAK1 = target: T2, JAK1 (Homo sapiens, UniProt P23458); experiment: JAK1 enzyme inhibition test (LANCE method); format: biochemical; settings: for inhibition at 1 µM: read-out: Inhibitory rate (%) JAK1 1 μM; for inhibition at 10 µM: read-out: Inhibitory rate (%) JAK1 10 μM
T2 construct: purchased Invitrogen
In short: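 Reactions ran 1 h at room temperature in HEPES pH 7.5/MgCl2 buffer, with ATP solution at 150 μM and JAK1 and ULight peptide solutions at 187.5 ng/mL and 300 nM. Reactions were stopped with EDTA, and phosphorylation was read by Eu antibody time-resolved fluorescence at 665 nm. Inhibition was scaled to a no-enzyme control as 100%.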

[1] = test compound 10 μM (Ex. 182-220), beside Tyk2 1 μM

T2 sequence (P23458 whole entry): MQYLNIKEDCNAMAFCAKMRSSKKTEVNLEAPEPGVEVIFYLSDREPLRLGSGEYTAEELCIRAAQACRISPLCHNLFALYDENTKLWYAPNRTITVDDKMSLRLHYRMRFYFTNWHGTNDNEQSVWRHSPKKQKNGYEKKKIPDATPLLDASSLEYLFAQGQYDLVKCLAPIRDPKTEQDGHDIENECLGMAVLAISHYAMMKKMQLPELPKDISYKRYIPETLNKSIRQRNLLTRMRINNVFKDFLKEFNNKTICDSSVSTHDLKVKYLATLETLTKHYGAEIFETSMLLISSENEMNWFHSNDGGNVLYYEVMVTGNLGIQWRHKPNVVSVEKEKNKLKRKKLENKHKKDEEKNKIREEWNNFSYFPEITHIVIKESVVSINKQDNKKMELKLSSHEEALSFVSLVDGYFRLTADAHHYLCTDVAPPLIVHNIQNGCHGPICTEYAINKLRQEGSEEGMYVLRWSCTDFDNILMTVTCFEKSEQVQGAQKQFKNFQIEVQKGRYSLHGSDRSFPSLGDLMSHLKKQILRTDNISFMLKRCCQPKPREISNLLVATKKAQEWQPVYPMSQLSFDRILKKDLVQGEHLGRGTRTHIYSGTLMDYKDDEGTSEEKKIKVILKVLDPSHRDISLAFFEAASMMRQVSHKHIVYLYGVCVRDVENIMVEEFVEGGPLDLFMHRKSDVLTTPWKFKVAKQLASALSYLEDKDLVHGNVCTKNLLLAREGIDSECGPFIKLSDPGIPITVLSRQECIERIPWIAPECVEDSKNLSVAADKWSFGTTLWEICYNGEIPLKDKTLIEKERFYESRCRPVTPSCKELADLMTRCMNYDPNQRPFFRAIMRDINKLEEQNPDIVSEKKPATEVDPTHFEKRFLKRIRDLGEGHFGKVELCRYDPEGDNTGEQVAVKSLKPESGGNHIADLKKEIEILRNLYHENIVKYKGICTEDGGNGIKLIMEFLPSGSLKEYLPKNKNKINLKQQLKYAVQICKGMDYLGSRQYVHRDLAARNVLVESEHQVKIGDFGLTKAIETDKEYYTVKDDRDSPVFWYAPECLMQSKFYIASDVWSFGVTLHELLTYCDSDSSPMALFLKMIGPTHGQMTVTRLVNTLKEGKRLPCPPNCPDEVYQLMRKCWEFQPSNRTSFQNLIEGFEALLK
T1 sequence (P29597 whole entry): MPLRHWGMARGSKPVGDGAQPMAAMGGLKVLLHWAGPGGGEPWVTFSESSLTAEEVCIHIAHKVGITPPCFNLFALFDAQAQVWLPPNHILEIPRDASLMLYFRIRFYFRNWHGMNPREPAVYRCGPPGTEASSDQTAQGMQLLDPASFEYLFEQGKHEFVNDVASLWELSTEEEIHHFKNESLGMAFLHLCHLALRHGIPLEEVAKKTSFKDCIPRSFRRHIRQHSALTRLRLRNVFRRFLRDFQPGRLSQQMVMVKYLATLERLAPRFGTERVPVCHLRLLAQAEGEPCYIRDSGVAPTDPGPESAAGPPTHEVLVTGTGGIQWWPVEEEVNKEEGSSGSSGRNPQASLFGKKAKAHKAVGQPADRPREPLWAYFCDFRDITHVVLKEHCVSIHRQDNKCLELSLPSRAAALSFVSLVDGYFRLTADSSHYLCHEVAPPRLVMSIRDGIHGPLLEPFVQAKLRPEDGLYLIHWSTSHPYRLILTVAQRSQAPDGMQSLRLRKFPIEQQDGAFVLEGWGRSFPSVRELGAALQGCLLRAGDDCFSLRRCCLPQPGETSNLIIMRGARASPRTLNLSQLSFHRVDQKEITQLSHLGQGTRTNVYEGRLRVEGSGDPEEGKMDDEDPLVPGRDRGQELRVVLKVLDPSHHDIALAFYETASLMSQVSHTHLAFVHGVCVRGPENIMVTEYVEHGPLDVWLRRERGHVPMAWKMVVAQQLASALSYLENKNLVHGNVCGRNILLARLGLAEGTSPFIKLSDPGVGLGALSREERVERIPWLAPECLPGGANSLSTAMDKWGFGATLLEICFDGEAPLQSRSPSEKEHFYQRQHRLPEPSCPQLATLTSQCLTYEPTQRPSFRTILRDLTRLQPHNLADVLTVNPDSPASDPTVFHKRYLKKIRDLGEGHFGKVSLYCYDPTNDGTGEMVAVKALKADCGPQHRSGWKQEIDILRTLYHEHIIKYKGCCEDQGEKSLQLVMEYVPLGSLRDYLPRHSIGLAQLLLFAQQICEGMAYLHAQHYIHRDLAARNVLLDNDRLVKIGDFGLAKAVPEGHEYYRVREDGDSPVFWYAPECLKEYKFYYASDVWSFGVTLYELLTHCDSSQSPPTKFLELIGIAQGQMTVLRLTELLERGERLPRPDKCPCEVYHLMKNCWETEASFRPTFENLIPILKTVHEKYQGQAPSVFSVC

Row | inhibition at 1 µM (Tyk2) [%] | inhibition at 1 µM (JAK1; test compound 1 μM) [%] | Compound | other results
1 | 94 | 41 | O=c1[nH]ccc2c1c(-c1cccc(CN3CCC(F)(F)C3)c1)nn2-c1c(F)cccc1F [Example 261, 1-(2,6-difluorophenyl)-3-(3-((3,3-difluoropyrrolidin-1-yl)methyl)phenyl)-1,5-dihydro-4H-pyrazolo[4,3-c]pyridin-4-one] | –
2 | 99 | – | COCCNC(=O)COc1ccc(-c2nn(-c3c(F)cccc3F)c3c(Cl)c[nH]c(=O)c23)cc1 [Example 217, 2-(4-(7-chloro-1-(2,6-difluorophenyl)-4-oxo-4,5-dihydro-1H-pyrazolo[4,3-c]pyridin-3-yl)phenoxy)-N-(2-methoxyethyl)acetamide] | inhibition at 10 µM (JAK1; [1]): 74%
3 | 96 | – | NS(=O)(=O)c1ccc(-c2nn(-c3ccccc3C(F)(F)F)c3cc[nH]c(=O)c23)cc1 [Example 212, 4-(4-oxo-1-(2-(trifluoromethyl)phenyl)-4,5-dihydro-1H-pyrazolo[4,3-c]pyridin-3-yl)benzenesulfonamide] | inhibition at 10 µM (JAK1; [1]): 99%
4 | 100 | – | CC1(O)CCC(n2nc(-c3ccc(S(N)(=O)=O)cc3)c3c(=O)[nH]ccc32)CC1 (stereo not shown) [Example 196, 4-(1-(4-hydroxy-4-methylcyclohexyl)-4-oxo-4,5-dihydro-1H-pyrazolo[4,3-c]pyridin-3-yl)benzenesulfonamide] | inhibition at 10 µM (JAK1; [1]): 100%
5 | 99 | 58 | O=C1NCCN1c1ccc(-c2nn(-c3c(F)cccc3F)c3c(Cl)c[nH]c(=O)c23)cc1 [Example 225, 7-chloro-1-(2,6-difluorophenyl)-3-(4-(2-oxoimidazolidin-1-yl)phenyl)-1,5-dihydro-4H-pyrazolo[4,3-c]pyridin-4-one] | –
6 | 99 | 87 | O=C(NCCO)c1ccc(-c2nn(-c3c(F)cccc3F)c3cc[nH]c(=O)c23)cc1 [Example 237, 4-(1-(2,6-difluorophenyl)-4-oxo-4,5-dihydro-1H-pyrazolo[4,3-c]pyridin-3-yl)-N-(2-hydroxyethyl)benzamide] | –
7 | 88 | 43 | CN(C)Cc1cccc(-c2nn(-c3c(F)cccc3F)c3cc[nH]c(=O)c23)c1 [Example 258, 1-(2,6-difluorophenyl)-3-(3-((dimethylamino)methyl)phenyl)-1,5-dihydro-4H-pyrazolo[4,3-c]pyridin-4-one] | –
8 | 69 | 93 | CC(C)(C)n1nc(Nc2ccccc2)c2c(=O)[nH]ccc21 [Example 250, 3-anilino-1-tert-butyl-1,5-dihydro-4H-pyrazolo[4,3-c]pyridin-4-one] | –
9 | 92 | 97 | CC[C@@H](COC)n1nc(-c2csc(C(N)=O)c2)c2c(=O)[nH]ccc21 [Example 262, 4-(1-((2S)-1-methoxybutan-2-yl)-4-oxo-4,5-dihydro-1H-pyrazolo[4,3-c]pyridin-3-yl)thiophene-2-carboxamide] | –
10 | 99 | – | CCC1(O)CCC(n2nc(-c3ccc(S(N)(=O)=O)cc3)c3c(=O)[nH]ccc32)CC1 (stereo not shown) [Example 209, 4-(1-(4-ethyl-4-hydroxycyclohexyl)-4-oxo-4,5-dihydro-1H-pyrazolo[4,3-c]pyridin-3-yl)benzenesulfonamide] | inhibition at 10 µM (JAK1; [1]): 99%
11 | 99 | 92 | NC(=O)c1ccc(-c2nn(-c3c(F)cccc3F)c3cc[nH]c(=O)c23)cc1 [Example 230, 4-(1-(2,6-difluorophenyl)-4-oxo-4,5-dihydro-1H-pyrazolo[4,3-c]pyridin-3-yl)benzamide] | –
12 | 83 | 68 | Nc1ncc(-c2nn(-c3c(F)cccc3F)c3cc[nH]c(=O)c23)cn1 [Example 300, 3-(2-aminopyrimidin-5-yl)-1-(2,6-difluorophenyl)-1,5-dihydro-4H-pyrazolo[4,3-c]pyridin-4-one] | –
13 | 99 | – | NS(=O)(=O)c1ccc(-c2nn(-c3ccccc3Cl)c3cc[nH]c(=O)c23)cc1 [Example 214, 4-(1-(2-chlorophenyl)-4-oxo-4,5-dihydro-1H-pyrazolo[4,3-c]pyridin-3-yl)benzenesulfonamide] | inhibition at 10 µM (JAK1; [1]): 99%

Continued, compound first:

Row | Compound | inhibition at 1 µM (Tyk2) [%] | inhibition at 1 µM (JAK1; test compound 1 μM) [%] | other results
14 | O=c1[nH]ccc2c1c(-c1cccc(C(F)(F)F)c1)nn2C1CCCC1 [Example 52, 1-cyclopentyl-3-(3-(trifluoromethyl)phenyl)-1,5-dihydro-4H-pyrazolo[4,3-c]pyridin-4-one] | 46 | 43 | –
15 | CNC(=O)c1ccc(-c2nn(-c3c(F)cccc3F)c3cc[nH]c(=O)c23)c(Cl)c1 [Example 295, 3-chloro-4-(1-(2,6-difluorophenyl)-4-oxo-4,5-dihydro-1H-pyrazolo[4,3-c]pyridin-3-yl)-N-methylbenzamide] | – | – | inhibition at 10 µM (Tyk2; test compound 10 μM, read-out: Inhibitory rate (%) Tyk2 10 μM): 80%; inhibition at 10 µM (JAK1; test compound 10 μM): 24%
16 | N#Cc1c[nH]c(=O)c2c(-c3cnn(CC(N)=O)c3)cn(C3CCCC3)c12 [Example 98, 2-(4-(7-cyano-1-cyclopentyl-4-oxo-4,5-dihydro-1H-pyrrolo[3,2-c]pyridin-3-yl)-1H-pyrazol-1-yl)acetamide] | 97 | 78 | –
17 | NS(=O)(=O)c1ccc(-c2nn(C3CCCOC3)c3cc[nH]c(=O)c23)cc1 (stereo not shown) [Example 87, 4-(4-oxo-1-(tetrahydro-2H-pyran-3-yl)-4,5-dihydro-1H-pyrazolo[4,3-c]pyridin-3-yl)benzenesulfonamide] | 96 | 99 | –
18 | O=c1[nH]ccc2c1c(-c1ccccc1F)nn2C1CCCC1 [Example 56, 1-cyclopentyl-3-(2-fluorophenyl)-1,5-dihydro-4H-pyrazolo[4,3-c]pyridin-4-one] | 31 | 13 | –
19 | NC(=O)c1cc(-c2cn(C3CCCC3)c3c(CO)c[nH]c(=O)c23)cs1 [Example 40, 4-(1-cyclopentyl-7-(hydroxymethyl)-4-oxo-4,5-dihydro-1H-pyrrolo[3,2-c]pyridin-3-yl)thiophene-2-carboxamide] | 78 | 78 | –
20 | N#CC1(NC(=O)c2cc(-c3nn(-c4c(F)cccc4F)c4c(Cl)c[nH]c(=O)c34)cs2)CC1 [Example 163, 4-(7-chloro-1-(2,6-difluorophenyl)-4-oxo-4,5-dihydro-1H-pyrazolo[4,3-c]pyridin-3-yl)-N-(1-cyanocyclopropyl)thiophene-2-carboxamide] | 100 | 98 | –
21 | CCC1(O)CCC(n2nc(-c3ccc(S(N)(=O)=O)cc3)c3c(=O)[nH]ccc32)CC1 (stereo not shown) [Example 210, 4-(1-(4-ethyl-4-hydroxycyclohexyl)-4-oxo-4,5-dihydro-1H-pyrazolo[4,3-c]pyridin-3-yl)benzenesulfonamide] | – | – | Inhibitory rate (%) Tyk2 1 μM (Tyk2): 97%; Inhibitory rate (%) JAK1 10 μM (JAK1; [1]): 99%
22 | CC(C)(C)n1nc(-c2ccc(S(N)(=O)=O)cc2)c2c(=O)[nH]ccc21 [Example 86, 4-(1-tert-butyl-4-oxo-4,5-dihydro-1H-pyrazolo[4,3-c]pyridin-3-yl)benzenesulfonamide] | 85 | 94 | –
23 | Cc1ccccc1-c1nn(-c2csc(C(=O)O)c2)c2c(=O)[nH]cc(C#N)c12 [Example 69, 4-(4-cyano-3-(2-methylphenyl)-7-oxo-6,7-dihydro-1H-pyrazolo[3,4-c]pyridin-1-yl)thiophene-2-carboxylic acid] | 92 | 28 | –
24 | O=c1[nH]cc(Cl)c2c1c(-c1ccc(N3CCOCC3)nc1)nn2-c1c(F)cccc1F [Example 164, 7-chloro-1-(2,6-difluorophenyl)-3-(6-(morpholin-4-yl)pyridin-3-yl)-1,5-dihydro-4H-pyrazolo[4,3-c]pyridin-4-one] | 99 | 66 | –
25 | CCC(CC)n1cc(-c2csc(C#N)c2)c2c(=O)[nH]ccc21 [Example 9, 4-(4-oxo-1-(pentan-3-yl)-4,5-dihydro-1H-pyrrolo[3,2-c]pyridin-3-yl)thiophene-2-carbonitrile] | 93 | 97 | –
26 | COC(=O)c1c[nH]c(=O)c2c(-c3csc(C(N)=O)c3)cn(C3CCCC3)c12 [Example 34, methyl 3-(5-carbamoyl-3-thienyl)-1-cyclopentyl-4-oxo-4,5-dihydro-1H-pyrrolo[3,2-c]pyridine-7-carboxylate] | 99 | 92 | –
27 | CNC(=O)c1cc(-c2nn(-c3c(F)cccc3F)c3c(Br)c[nH]c(=O)c23)cs1 [Example 145, 4-(7-bromo-1-(2,6-difluorophenyl)-4-oxo-4,5-dihydro-1H-pyrazolo[4,3-c]pyridin-3-yl)-N-methylthiophene-2-carboxamide] | 100 | 99 | –
28 | NC(=O)c1cc(-n2nc(C3CCCC3)c3c(Br)c[nH]c(=O)c32)cs1 [Example 67, 4-(4-bromo-3-cyclopentyl-7-oxo-6,7-dihydro-1H-pyrazolo[3,4-c]pyridin-1-yl)thiophene-2-carboxamide] | 91 | 55 | –
29 | NS(=O)(=O)c1ccc(-c2nn(C3CCCOC3)c3cc[nH]c(=O)c23)cc1 (stereo not shown) [Example 88, 4-(4-oxo-1-(tetrahydro-2H-pyran-3-yl)-4,5-dihydro-1H-pyrazolo[4,3-c]pyridin-3-yl)benzenesulfonamide] | – | – | Inhibitory rate (%) Tyk2 1 μM (Tyk2): 91%; Inhibitory rate (%) JAK1 1 μM (JAK1; test compound 1 μM): 96%

— US9371320B2, “Heterocyclic compound” (TAKEDA PHARMACEUTICAL COMPANY LIMITED, priority 2012, dated 2016)
